Patent US10214519B2, “Phosphatidylinositol 3-kinase inhibitors” (Gilead Sciences, Inc., priority 2016, dated 2019)

biological target: PI3Kβ (Homo sapiens (Human), UniProt P42338); test: PI3K isoform TR-FRET enzymatic assay (PI3Kβ); type: biochemical; details: 2× Km ATP, 30 minutes at 25° C.
Summary of the method: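 Heterodimeric recombinant PI3Kβ was incubated with compound 30 minutes at 25° C. Product was detected by TR-FRET competition with 10 nM labeled PIP3 for 35 nM Eu-GRP-1 PH domain after EDTA stop. Data were normalized to 1 μM wortmannin and DMSO, and IC50 was taken from a four-parameter fit.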

Sequence of PI3Kβ (P42338 whole entry, the tested form may be a part, canonical isoform): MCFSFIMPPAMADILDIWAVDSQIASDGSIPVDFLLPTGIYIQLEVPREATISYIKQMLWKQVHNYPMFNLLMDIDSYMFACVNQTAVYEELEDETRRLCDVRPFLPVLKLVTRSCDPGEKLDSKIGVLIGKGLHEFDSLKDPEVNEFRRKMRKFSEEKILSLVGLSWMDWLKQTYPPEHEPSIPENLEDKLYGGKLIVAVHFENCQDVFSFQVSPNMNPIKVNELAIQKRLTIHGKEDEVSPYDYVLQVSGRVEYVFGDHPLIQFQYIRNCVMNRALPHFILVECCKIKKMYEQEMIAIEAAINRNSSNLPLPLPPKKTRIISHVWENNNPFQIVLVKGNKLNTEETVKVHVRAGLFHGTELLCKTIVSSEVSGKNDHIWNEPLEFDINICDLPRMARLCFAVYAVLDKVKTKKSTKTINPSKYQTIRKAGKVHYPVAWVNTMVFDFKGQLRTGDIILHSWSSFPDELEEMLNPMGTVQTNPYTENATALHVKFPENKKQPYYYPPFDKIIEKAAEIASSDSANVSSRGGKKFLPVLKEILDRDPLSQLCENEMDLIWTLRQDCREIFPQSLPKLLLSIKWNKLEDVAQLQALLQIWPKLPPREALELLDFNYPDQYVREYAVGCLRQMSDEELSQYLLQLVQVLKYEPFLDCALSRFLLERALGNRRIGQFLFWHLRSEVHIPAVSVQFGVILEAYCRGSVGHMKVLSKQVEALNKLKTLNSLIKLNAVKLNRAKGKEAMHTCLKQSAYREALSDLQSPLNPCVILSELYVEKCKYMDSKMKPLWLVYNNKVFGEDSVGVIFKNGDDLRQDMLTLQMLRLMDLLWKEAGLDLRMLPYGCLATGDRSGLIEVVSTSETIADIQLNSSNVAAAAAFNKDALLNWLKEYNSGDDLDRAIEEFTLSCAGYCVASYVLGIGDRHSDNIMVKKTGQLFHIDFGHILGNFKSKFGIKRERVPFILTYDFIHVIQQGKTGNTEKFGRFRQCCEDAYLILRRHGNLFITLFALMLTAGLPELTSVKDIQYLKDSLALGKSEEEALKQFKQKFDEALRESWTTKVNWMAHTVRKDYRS
Sequence of PI3Kβ (P27986 whole entry partner, the tested form may be a part, canonical isoform): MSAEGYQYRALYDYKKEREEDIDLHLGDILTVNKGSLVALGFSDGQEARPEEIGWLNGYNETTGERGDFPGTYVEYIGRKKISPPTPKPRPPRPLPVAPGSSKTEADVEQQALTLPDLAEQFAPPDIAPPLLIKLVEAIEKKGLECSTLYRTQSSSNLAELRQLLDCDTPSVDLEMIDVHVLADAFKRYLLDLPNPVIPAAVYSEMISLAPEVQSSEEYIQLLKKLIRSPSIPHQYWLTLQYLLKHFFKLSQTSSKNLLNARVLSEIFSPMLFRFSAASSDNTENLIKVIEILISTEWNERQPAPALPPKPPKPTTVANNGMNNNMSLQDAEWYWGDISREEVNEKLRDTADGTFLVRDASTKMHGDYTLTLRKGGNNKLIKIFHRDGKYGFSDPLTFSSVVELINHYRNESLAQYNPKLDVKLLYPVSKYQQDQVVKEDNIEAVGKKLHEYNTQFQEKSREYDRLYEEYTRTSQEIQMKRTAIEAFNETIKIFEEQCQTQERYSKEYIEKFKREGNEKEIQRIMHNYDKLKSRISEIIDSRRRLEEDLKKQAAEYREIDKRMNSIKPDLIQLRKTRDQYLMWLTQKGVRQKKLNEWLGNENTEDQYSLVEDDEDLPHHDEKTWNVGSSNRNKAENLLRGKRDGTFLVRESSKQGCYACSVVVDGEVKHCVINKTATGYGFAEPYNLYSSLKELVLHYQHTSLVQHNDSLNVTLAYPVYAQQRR

Which IC50 does the source give for `Cc1csc(-c2cc(N3CCOCC3)cc3c2nc(C)n3-c2ccnc3c(Cl)cccc23)n1` [Example 205, 4-[3-(8-chloroquinolin-4-yl)-2-methyl-7-(4-methyl-1,3-thiazol-2-yl)benzimidazol-5-yl]morpholine] here?
Its IC50 is 0.012 µM.

With `CCc1nc2c(-c3cnc(C)[nH]3)cc(N3CCOCC3)cc2n1-c1ccnc2c(F)ccc(F)c12` [Example 206, 4-[3-(5,8-difluoroquinolin-4-yl)-2-ethyl-7-(2-methyl-1H-imidazol-5-yl)benzimidazol-5-yl]morpholine] as the compound, how does the IC50 read?
Its IC50 is 0.04 µM.

For `CCCc1nc2c(-c3cnc[nH]3)cc(N3CCOCC3)cc2n1-c1ccnc2c(Cl)cccc12` [Example 207, 4-[3-(8-chloroquinolin-4-yl)-7-(1H-imidazol-5-yl)-2-propylbenzimidazol-5-yl]morpholine], which IC50 is on record?
Its IC50 is 0.013 µM.

`Cc1nc2c(-c3cnc[nH]3)cc(N3CCOCC3)cc2n1-c1ccnc2c(F)cccc12` [Example 208, 4-[3-(8-fluoroquinolin-4-yl)-7-(1H-imidazol-5-yl)-2-methylbenzimidazol-5-yl]morpholine] was tested. Which IC50 did it give?
Its IC50 is 0.014 µM.

How did the IC50 turn out when `CCc1nc2c(-c3cnc[nH]3)cc(N3CCOCC3)cc2n1-c1ccnc2c(F)cccc12` [Example 209, 4-[2-ethyl-3-(8-fluoroquinolin-4-yl)-7-(1H-imidazol-5-yl)benzimidazol-5-yl]morpholine] was run?
Its IC50 is 0.015 µM.

`Cc1cc(-n2c(C)nc3c(-c4cnc[nH]4)cc(N4CCOCC4)cc32)c2cccc(F)c2n1` [Example 210, 4-[3-(8-fluoro-2-methylquinolin-4-yl)-7-(1H-imidazol-5-yl)-2-methylbenzimidazol-5-yl]morpholine] was tested. Which IC50 did it give?
The IC50 was 0.027 µM.

Which IC50 does the source give for `CCc1nc2c(-c3cnc[nH]3)cc(N3CCOCC3)cc2n1-c1cc(C)nc2c(F)cccc12` [Example 211, 4-[2-ethyl-3-(8-fluoro-2-methylquinolin-4-yl)-7-(1H-imidazol-5-yl)benzimidazol-5-yl]morpholine] here?
The IC50 was 0.022 µM.

Which IC50 does the source give for `CCCc1nc2c(-c3cnc(C)[nH]3)cc(N3CCOCC3)cc2n1-c1ccnc2c(Cl)cccc12` [Example 212, 4-[3-(8-chloroquinolin-4-yl)-7-(2-methyl-1H-imidazol-5-yl)-2-propylbenzimidazol-5-yl]morpholine] here?
Its IC50 is 0.034 µM.

With `CCc1nc2c(-c3ncco3)cc(N3CCOCC3)cc2n1-c1ccnc2c(F)cccc12` [Example 213, 4-[2-ethyl-3-(8-fluoroquinolin-4-yl)-7-(1,3-oxazol-2-yl)benzimidazol-5-yl]morpholine] as the compound, how does the IC50 read?
Its IC50 is 0.016 µM.

`Fc1cccc2c(-n3c(C4CC4)nc4c(-c5ncco5)cc(N5CCOCC5)cc43)ccnc12` [Example 214, 4-[2-cyclopropyl-3-(8-fluoroquinolin-4-yl)-7-(1,3-oxazol-2-yl)benzimidazol-5-yl]morpholine] was tested. Which IC50 did it give?
Its IC50 is 0.056 µM.

How did the IC50 turn out when `Cc1cnc(-c2cc(N3CCOCC3)cc3c2nc(C)n3-c2ccnc3c(Cl)cccc23)s1` [Example 215, 4-[3-(8-chloroquinolin-4-yl)-2-methyl-7-(5-methyl-1,3-thiazol-2-yl)benzimidazol-5-yl]morpholine] was run?
The IC50 was 0.63 µM.

Which IC50 does the source give for `Cc1nc(-c2cc(N3CCOCC3)cc3c2nc(C)n3-c2ccnc3c(Cl)cccc23)sc1C` [Example 216, 4-[3-(8-chloroquinolin4-yl)-7-(4,5-dimethyl-1,3-thiazol-2-yl)-2-methylbenzimidazol-5-yl]morpholine] here?
The IC50 was 0.38 µM.

How did the IC50 turn out when `CCc1nc2c(-c3ncco3)cc(N3CCOCC3)cc2n1-c1ccnc2c(F)ccc(F)c12` [Example 217, 4-[3-(5,8-difluoroquinolin-4-yl)-2-ethyl-7-(1,3-oxazol-2-yl)benzimidazol-5-yl]morpholine] was run?
The IC50 was 0.009 µM.

With `CCc1nc2c(-c3ncco3)cc(N3CCOCC3)cc2n1-c1ccnc2c(Cl)c(F)ccc12` [Example 218, 4-[3-(8-chloro-7-fluoroquinolin-4-yl)-2-ethyl-7-(1,3-oxazol-2-yl)benzimidazol-5-yl]morpholine] as the compound, how does the IC50 read?
Its IC50 is 0.011 µM.

With `CC(C)Cc1nc2c(-c3ncco3)cc(N3CCOCC3)cc2n1-c1ccnc2c(F)ccc(F)c12` [Example 219, 4-[3-(5,8-difluoroquinolin-4-yl)-2-(2-methylpropyl)-7-(1,3-oxazol-2-yl)benzimidazol-5-yl]morpholine] as the compound, how does the IC50 read?
Its IC50 is 0.008 µM.
